Laboratory results taken from ChEMBL document CHEMBL3217622, “Design of 7-amino-6-chloro-3H-imidazo[4,5-b]pyridine scaffold from 5-chloro-2,4-diaminopyrimidine pharmacophore: identification of potent inhibitors of anaplastic lymphoma kinase” (Medchemcomm, 2012).

Experiments:
[1] = target: ALK tyrosine kinase receptor (Homo sapiens, UniProt Q9UM73); assay: Inhibition of ALK (unknown origin)
Rattus norvegicus [2] = assay: Half life in rat at 1 mg/kg, iv; type: ADME, organism-based; set-up: dose 1 mg/kg, route intravenous; conditions: in vivo
Rattus norvegicus [3] = assay: Volume of distribution in rat at 1 mg/kg, iv; type: ADME, organism-based; set-up: dose 1 mg/kg, route intravenous; conditions: in vivo
[4] = AUC (0 to infinity) in rat at 1 mg/kg, iv; type: ADME, organism-based; set-up: dose 1 mg/kg, route intravenous, time infinity; conditions: plasma
Rattus norvegicus [5] = assay: (§1) Cmax in rat at 5 mg/kg, po; type: ADME, organism-based; set-up: dose 5 mg/kg, route oral; conditions: in vivo, BLD = below limit of detection
Rattus norvegicus [6] = assay: (§2) AUC (0 to infinity) in rat at 5 mg/kg, po; type: ADME, organism-based, Plasma; set-up: dose 5 mg/kg, route oral, time infinity; conditions: in vivo, BLD = below limit of detection
[7] = Oral bioavailability in rat at 5 mg/kg; type: ADME, organism-based; conditions: in vivo
[8] = as §1; type: ADME, organism-based; set-up: dose 5 mg/kg, route oral; conditions: in vivo
[9] = as §2; type: ADME, organism-based, Plasma; set-up: dose 5 mg/kg, route oral, time infinity; conditions: plasma
Liver microsome [10] = assay: Bioactivation in human liver microsomes in presence of NADPH
Liver microsome [11] = assay: Metabolic stability in human liver microsomes assessed as GSH conjugation by LC/MS analysis; type: ADME
Cytochrome P450 3A4 [12] = target: T1, Cytochrome P450 3A4 (Homo sapiens, UniProt P08684); assay: Inhibition of CYP3A4 in human pooled liver microsomes using testosterone as substrate by LC/MS/MS analysis
Cytochrome P450 3A4 [13] = target: T1, Cytochrome P450 3A4; assay: Inhibition of CYP3A4 in human pooled liver microsomes using midazolam as substrate by LC/MS/MS analysis
Cytochrome P450 1A2 = target: T2, Cytochrome P450 1A2 (Homo sapiens, UniProt P05177); assay: Inhibition of CYP1A2 in human pooled liver microsomes using phenacetin as substrate by LC/MS/MS analysis
T2 sequence (P05177 whole entry): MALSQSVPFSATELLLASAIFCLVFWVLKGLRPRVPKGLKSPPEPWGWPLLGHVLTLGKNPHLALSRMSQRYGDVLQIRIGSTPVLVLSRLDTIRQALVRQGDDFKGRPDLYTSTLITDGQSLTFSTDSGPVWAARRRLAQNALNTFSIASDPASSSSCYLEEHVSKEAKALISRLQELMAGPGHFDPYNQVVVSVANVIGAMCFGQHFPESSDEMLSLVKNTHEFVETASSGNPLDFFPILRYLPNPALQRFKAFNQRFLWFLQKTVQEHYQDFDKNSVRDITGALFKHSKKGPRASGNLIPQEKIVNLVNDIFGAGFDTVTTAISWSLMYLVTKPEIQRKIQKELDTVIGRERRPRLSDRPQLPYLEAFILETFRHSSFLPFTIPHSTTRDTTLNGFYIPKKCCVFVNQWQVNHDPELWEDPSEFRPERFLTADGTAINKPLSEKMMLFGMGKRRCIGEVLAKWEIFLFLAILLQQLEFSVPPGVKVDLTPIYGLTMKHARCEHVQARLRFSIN

Cytochrome P450 2C9 = Cytochrome P450 2C9 (Homo sapiens, UniProt P11712); assay: Inhibition of CYP2C9 in human pooled liver microsomes using diclofenac as substrate by LC/MS/MS analysis
Cytochrome P450 2C19 = Cytochrome P450 2C19 (Homo sapiens, UniProt P33261); assay: Inhibition of CYP2C19 in human pooled liver microsomes using S-mephenytoin as substrate by LC/MS/MS analysis
Cytochrome P450 2D6 = Cytochrome P450 2D6 (Homo sapiens, UniProt P10635); assay: Inhibition of CYP2D6 in human pooled liver microsomes using dextromethorphan as substrate by LC/MS/MS analysis
[14] = Apparent permeability of the compound from apical to basolateral side in human Caco2 cells by absorption system analysis; conditions: Caco-2
[15] = target: Voltage-gated inwardly rectifying potassium channel KCNH2 (Homo sapiens, UniProt Q12809); assay: Inhibition of human ERG by automated patch-clamp assay
Insulin receptor = Insulin receptor (Homo sapiens, UniProt P06213); assay: Inhibition of insulin receptor kinase (unknown origin)
Sequence of Insulin receptor (P06213 28-758 limits assumed): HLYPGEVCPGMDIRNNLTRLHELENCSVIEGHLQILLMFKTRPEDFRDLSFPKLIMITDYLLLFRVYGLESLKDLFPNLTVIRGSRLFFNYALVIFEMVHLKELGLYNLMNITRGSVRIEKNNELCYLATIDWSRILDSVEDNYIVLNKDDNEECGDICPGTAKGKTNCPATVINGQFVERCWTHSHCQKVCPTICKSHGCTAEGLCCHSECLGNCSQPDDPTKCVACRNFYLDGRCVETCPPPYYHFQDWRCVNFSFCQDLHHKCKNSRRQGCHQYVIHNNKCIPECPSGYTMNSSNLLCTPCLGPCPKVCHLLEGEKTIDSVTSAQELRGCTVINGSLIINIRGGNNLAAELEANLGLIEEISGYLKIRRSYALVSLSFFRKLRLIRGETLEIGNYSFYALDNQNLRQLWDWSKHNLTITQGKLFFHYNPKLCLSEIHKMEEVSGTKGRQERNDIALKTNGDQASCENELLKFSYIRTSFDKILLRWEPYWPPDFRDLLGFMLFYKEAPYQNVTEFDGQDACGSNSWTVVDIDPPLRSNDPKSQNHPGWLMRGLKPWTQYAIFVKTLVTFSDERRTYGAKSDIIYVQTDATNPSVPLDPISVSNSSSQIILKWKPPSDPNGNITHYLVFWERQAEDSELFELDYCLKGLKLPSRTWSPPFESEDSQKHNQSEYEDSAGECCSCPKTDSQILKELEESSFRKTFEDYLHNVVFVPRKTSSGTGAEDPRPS
Sequence of Insulin receptor (P06213 763-1382 limits assumed): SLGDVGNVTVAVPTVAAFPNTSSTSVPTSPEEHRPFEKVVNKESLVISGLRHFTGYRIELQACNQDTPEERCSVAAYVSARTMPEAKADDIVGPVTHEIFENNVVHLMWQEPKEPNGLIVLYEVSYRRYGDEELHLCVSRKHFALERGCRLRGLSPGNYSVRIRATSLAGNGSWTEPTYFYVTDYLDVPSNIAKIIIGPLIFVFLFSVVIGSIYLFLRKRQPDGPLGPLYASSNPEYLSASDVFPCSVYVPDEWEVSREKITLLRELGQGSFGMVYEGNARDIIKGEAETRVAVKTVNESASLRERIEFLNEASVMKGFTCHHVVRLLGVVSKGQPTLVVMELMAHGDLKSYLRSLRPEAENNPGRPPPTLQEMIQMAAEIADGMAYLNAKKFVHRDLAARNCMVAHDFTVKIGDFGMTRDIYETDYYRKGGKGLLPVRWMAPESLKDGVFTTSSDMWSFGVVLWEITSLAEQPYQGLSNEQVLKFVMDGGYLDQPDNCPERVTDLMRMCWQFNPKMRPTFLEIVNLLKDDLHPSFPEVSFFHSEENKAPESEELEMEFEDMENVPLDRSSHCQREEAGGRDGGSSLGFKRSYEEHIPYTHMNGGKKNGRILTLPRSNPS

Sequence of Cytochrome P450 2C19 (P33261 whole entry): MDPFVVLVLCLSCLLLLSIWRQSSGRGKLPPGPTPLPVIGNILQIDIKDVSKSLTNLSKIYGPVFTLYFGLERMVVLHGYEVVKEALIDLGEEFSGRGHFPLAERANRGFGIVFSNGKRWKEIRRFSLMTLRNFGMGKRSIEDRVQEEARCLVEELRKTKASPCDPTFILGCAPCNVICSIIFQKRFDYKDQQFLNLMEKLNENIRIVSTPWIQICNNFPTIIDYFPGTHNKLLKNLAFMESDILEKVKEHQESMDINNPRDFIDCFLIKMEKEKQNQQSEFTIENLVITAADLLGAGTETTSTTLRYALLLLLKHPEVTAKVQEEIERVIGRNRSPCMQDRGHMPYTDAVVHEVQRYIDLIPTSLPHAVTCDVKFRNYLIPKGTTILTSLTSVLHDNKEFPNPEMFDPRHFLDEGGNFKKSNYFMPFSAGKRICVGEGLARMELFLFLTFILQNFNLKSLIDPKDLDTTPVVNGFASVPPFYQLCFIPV
Sequence of Cytochrome P450 2C9 (P11712 whole entry): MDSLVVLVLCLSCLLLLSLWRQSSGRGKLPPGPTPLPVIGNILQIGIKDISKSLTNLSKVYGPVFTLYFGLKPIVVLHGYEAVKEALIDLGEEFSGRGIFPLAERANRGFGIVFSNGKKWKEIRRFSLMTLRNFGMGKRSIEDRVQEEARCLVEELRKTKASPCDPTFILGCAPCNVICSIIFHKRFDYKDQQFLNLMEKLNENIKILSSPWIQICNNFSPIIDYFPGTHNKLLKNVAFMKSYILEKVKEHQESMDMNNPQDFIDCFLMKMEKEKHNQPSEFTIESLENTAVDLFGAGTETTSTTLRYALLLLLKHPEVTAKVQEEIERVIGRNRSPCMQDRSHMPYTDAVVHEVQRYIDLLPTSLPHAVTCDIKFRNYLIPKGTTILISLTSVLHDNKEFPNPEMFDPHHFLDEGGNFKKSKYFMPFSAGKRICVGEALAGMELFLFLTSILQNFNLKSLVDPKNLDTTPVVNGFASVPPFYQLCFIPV
Sequence of Cytochrome P450 2D6 (P10635 whole entry): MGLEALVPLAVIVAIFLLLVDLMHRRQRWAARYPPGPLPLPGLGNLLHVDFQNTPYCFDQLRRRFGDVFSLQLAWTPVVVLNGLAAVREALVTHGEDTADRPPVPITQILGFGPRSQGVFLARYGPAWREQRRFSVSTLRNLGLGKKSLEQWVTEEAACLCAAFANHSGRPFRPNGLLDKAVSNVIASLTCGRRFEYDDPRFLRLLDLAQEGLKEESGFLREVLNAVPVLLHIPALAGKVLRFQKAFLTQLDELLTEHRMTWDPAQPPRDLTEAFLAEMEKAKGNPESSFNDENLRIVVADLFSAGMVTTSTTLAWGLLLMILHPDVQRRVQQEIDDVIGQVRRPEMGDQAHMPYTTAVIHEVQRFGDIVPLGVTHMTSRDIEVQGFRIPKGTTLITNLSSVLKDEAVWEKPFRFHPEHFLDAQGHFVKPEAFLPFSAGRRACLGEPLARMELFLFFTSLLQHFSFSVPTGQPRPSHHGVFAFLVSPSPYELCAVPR
T1 sequence (P08684 whole entry): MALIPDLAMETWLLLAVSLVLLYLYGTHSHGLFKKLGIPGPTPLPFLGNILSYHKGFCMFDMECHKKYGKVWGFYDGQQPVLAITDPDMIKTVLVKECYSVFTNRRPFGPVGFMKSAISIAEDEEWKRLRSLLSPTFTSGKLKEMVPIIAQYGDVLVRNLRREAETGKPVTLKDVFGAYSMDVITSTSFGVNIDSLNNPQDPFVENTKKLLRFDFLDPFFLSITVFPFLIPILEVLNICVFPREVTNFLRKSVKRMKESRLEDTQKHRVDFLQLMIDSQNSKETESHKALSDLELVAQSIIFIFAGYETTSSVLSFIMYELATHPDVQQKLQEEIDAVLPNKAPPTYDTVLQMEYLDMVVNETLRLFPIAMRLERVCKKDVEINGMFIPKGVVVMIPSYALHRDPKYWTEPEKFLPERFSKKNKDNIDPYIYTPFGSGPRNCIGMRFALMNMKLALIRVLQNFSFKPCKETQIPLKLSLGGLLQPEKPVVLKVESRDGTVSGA
Sequence of ALK tyrosine kinase receptor (Q9UM73 whole entry): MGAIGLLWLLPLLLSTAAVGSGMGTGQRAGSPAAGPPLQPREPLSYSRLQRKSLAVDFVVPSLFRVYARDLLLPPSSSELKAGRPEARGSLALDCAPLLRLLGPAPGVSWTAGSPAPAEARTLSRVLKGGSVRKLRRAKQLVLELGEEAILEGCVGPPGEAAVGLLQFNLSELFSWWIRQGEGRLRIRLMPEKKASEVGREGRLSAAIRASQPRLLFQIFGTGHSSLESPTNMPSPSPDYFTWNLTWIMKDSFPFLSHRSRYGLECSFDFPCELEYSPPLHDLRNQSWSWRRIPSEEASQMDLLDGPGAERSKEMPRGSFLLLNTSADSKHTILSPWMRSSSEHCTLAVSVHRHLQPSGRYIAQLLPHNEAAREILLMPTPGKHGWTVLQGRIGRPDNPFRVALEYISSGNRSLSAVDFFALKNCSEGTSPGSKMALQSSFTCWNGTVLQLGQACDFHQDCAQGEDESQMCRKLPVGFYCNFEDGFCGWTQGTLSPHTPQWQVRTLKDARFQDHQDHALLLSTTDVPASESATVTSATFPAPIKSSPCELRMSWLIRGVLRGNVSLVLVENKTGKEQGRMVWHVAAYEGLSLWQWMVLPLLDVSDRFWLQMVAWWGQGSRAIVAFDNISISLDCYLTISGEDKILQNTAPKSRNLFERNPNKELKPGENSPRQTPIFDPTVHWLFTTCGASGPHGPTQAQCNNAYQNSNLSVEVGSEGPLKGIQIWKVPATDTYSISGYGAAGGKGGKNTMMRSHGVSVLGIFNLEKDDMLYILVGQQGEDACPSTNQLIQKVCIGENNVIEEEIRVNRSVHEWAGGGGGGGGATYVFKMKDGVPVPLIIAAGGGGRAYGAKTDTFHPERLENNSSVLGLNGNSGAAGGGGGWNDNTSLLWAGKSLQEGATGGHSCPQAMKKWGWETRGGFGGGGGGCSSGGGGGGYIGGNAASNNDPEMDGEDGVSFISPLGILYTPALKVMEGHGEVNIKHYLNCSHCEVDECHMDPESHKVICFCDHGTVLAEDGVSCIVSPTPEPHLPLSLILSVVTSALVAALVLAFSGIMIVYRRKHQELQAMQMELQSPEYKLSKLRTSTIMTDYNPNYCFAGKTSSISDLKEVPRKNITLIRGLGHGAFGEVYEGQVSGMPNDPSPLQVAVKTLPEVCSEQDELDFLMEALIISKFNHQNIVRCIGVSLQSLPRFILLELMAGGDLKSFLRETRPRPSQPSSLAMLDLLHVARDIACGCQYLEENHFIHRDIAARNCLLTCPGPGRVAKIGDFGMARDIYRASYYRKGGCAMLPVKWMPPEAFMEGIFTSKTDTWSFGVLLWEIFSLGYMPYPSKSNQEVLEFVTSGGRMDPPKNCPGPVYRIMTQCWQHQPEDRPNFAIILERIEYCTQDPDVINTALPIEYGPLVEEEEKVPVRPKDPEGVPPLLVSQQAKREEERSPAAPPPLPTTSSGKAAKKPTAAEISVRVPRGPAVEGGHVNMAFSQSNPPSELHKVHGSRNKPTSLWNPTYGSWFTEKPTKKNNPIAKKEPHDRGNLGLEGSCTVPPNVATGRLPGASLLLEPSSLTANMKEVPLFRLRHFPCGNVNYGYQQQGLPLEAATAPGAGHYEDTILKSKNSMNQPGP

Work on `NC(=O)[C@@H]1[C@H](Nc2ccnc3[nH]c(-c4ccc(N5CCOCC5)cc4)nc23)[C@H]2C=C[C@@H]1C2` yielded an IC50 [1] of over 10 µM.

Compound `COc1cc(CN2CCN(C)CC2)ccc1-c1nc2c(N[C@H]3[C@@H](C(N)=O)[C@@H]4C=C[C@H]3C4)c(Cl)cnc2[nH]1` has a t1/2 (Rattus norvegicus [2]) of 1.1 h, a Vd (Rattus norvegicus [3]) of 1.6 L/kg and an AUC(0-inf) [4] of 1140 ng·h/mL. The Cmax (Rattus norvegicus [5]) was “BLD”, the AUC (Rattus norvegicus [6]) was “BLD” and the bioavailability [7] was 0%.

For `COc1cc(N2CCOCC2)ccc1-c1nc2c(N[C@H]3[C@@H](C(N)=O)[C@@H]4C=C[C@H]3C4)c(Cl)cnc2[nH]1`, the t1/2 (Rattus norvegicus [2]) was 1.4 h, the Vd (Rattus norvegicus [3]) was 0.8 L/kg and the AUC(0-inf) [4] was 2480 ng·h/mL. For the same compound, the Cmax [8] was 429 ng/mL, the AUC(0-inf) [9] was 2580 ng·h/mL and the bioavailability [7] was 21%. For the same compound, the Stability (Liver microsome [10]) was “Stable” and the Stability (Liver microsome [11]) was “Stable”.

In the case of `COc1cc(N2CCC(N3CCN(C)CC3)CC2)ccc1-c1nc2c(N[C@H]3[C@@H](C(N)=O)[C@@H]4C=C[C@H]3C4)c(Cl)cnc2[nH]1`, the IC50 (Cytochrome P450 3A4 [12]) is reported as over 30 µM, the IC50 (Cytochrome P450 3A4 [13]) is reported as over 30 µM and the t1/2 (Rattus norvegicus [2]) is reported as 2.5 h. For the same compound, the Vd (Rattus norvegicus [3]) was 3 L/kg, the AUC(0-inf) [4] was 1430 ng·h/mL and the Cmax (Rattus norvegicus [5]) was “BLD”. For the same compound, the AUC (Rattus norvegicus [6]) was “BLD”, the bioavailability [7] was 0% and the IC50 (Cytochrome P450 1A2) was over 30 µM. For the same compound, the IC50 (Cytochrome P450 2C9) was over 30 µM, the IC50 (Cytochrome P450 2C19) was over 30 µM and the IC50 (Cytochrome P450 2D6) was over 30 µM.

For `COc1cc(N2CCN(C)CC2)ccc1-c1nc2c(N[C@H]3[C@@H](C(N)=O)[C@@H]4C=C[C@H]3C4)c(Cl)cnc2[nH]1`, the IC50 (Cytochrome P450 3A4 [12]) was 8.5 µM, the IC50 (Cytochrome P450 3A4 [13]) was 13.7 µM and the t1/2 (Rattus norvegicus [2]) was 1.4 h. For the same compound, the Vd (Rattus norvegicus [3]) was 5.3 L/kg, the AUC(0-inf) [4] was 416 ng·h/mL and the Cmax [8] was 26 ng/mL. For the same compound, the AUC(0-inf) [9] was 148 ng·h/mL, the bioavailability [7] was 7% and the Papp A→B [14] was 5 ×10⁻⁶ cm/s. It also gave an IC50 [15] of over 10 µM, an IC50 (Cytochrome P450 1A2) of over 30 µM and an IC50 (Cytochrome P450 2C9) of over 30 µM. It also gave an IC50 (Cytochrome P450 2C19) of over 30 µM and an IC50 (Cytochrome P450 2D6) of over 30 µM.

`CN1CCN(c2ccc(-c3nc4c(N[C@H]5[C@@H](C(N)=O)[C@@H]6C=C[C@H]5C6)ccnc4[nH]3)cc2)CC1` gave an IC50 [1] of over 3 µM.

Work on `COc1cccc(-c2nc3c(N[C@H]4[C@@H](C(N)=O)[C@@H]5C=C[C@H]4C5)c(Cl)cnc3[nH]2)c1` yielded an IC50 (Insulin receptor) of over 3 µM.

For `COc1cc(N2CCC(N3CCOCC3)CC2)ccc1-c1nc2c(N[C@H]3[C@@H](C(N)=O)[C@@H]4C=C[C@H]3C4)c(Cl)cnc2[nH]1`, the t1/2 (Rattus norvegicus [2]) was 1.9 h, the Vd (Rattus norvegicus [3]) was 1.8 L/kg and the AUC(0-inf) [4] was 1750 ng·h/mL. For the same compound, the Cmax [8] was 158 ng/mL, the AUC(0-inf) [9] was 740 ng·h/mL and the bioavailability [7] was 8%.

For `COc1cc(CN2CCOCC2)ccc1-c1nc2c(N[C@H]3[C@@H](C(N)=O)[C@@H]4C=C[C@H]3C4)c(Cl)cnc2[nH]1`, the IC50 (Cytochrome P450 3A4 [12]) was over 30 µM, the IC50 (Cytochrome P450 3A4 [13]) was over 30 µM and the t1/2 (Rattus norvegicus [2]) was 1.6 h. For the same compound, the Vd (Rattus norvegicus [3]) was 5.6 L/kg, the AUC(0-inf) [4] was 451 ng·h/mL and the Cmax [8] was 317 ng/mL. The AUC(0-inf) [9] was 1730 ng·h/mL, the bioavailability [7] was 76% and the Papp A→B [14] was 10.8 ×10⁻⁶ cm/s. It also gave an IC50 (Cytochrome P450 1A2) of over 30 µM, an IC50 (Cytochrome P450 2C9) of over 30 µM and an IC50 (Cytochrome P450 2C19) of over 30 µM. It also gave an IC50 (Cytochrome P450 2D6) of over 30 µM.
